A short description of test [1]: Effects of CNA and CLA on body composition (diet feeding). Type of test: in vivo, mice. The note with it: 0.3% in diet, 2 weeks; for Body weight gain per animal: female ICR mice. An excerpt:
Female ICR mice (4-week-old) and semi-purified diets (TD94060, 99% basal mix) were purchased from Harlan Sprague Dawley (Madison, Wis.) and Harlan Teklad (Madison, Wis.), respectively. CLA was obtained from Natural Lipids Ltd AS, Hovdebygda, Norway; its composition was 88.7% CLA (c9, t11/t9, c11, 41.9%; t10, c12, 43.5%; t9, t11/10, t12, 1.5%; others, 1.8%) with the remainder as oleic acid, 5.6%; palmitic acid, 1.4%; and linoleic acid, 0.5%. CNA was kindly provided by the US Food and Drug Administration; it was 98.6% CNA (c10, t12, 42.3%; t11, c13, 48.0%; t10, t12/t11, t13, 5.1%; others, 3.2%) with the remainder as unreacted NA. CLA or CNA was added to diets at the expense of corn oil to maintain 5.5% fat. Diet was stored at −20° C. until use. Mice were housed individually in a windowless room with a 12-h light-dark cycle in strict accordance to guidelines established by the Research Animal Resources Center of University of Wisconsin-Madison. Diet and water, available ad libitum, were freshly provided three times per week.
After a 5 day adaptation period, mice were randomly separated into 3 groups and fed control diet, diet supplemented with 0.3% CLA, or diet supplemented with 0.3% CNA for 2 weeks. 0.3% of diet CLA is a sub-optimal dose for CLA's effects on body composition.
Results are mean±S.E. (n=6).

Test [2] has as its system 3T3-L1 adipocytes. The test can be described thus: glycerol release in 3T3-L1 adipocytes. Type of test: cell-based. An excerpt:
(§1) CNA was synthesized from NA (purchased from Nu-Chek Corp., Elysian, Minn.), using the method described in Park, Y. et al., Lipids 34 (1999) 235-241 for producing CLA from linoleic acid; the CNA product synthesized contained 97.3% CNA (c10, t12, 33.4%; t11, c13, 32.9%; t10, t12/t11, t13, 23.4%; other isomers, 7.6%) with the remainder as unreacted NA. CLA was synthesized as described by Park, et al., supra; the CLA product synthesized contained 97.8% CLA (c9, t11/t9, c11, 45.7%; t10, c12, 47.6%; t9, t11/t10, t12, 1.7%; others, 2.8%) with the remainder as unreacted linoleic acid.
(§2) Cultured cells were treated with fatty acid-albumin complexes for 2 days, beginning at day 6 post-differentiation. Data were analyzed as log value with a two-way ANOVA using fatty acid (as treatments) and experiment. If the interaction between treatment and experiment was significant, this interaction was used as the error term. Additional experimental details were as described in Park, et al., supra.
(§3) Treatment values indicate the concentration of test materials (μM); all treatment groups included albumin at 100 μM. Reported values are mean±S.E. (n=8, collected from two independent experiments). […] CNA inhibited LPL activity in cultured 3T3-L1 adipocytes (FIG. 1A). In addition, CNA enhanced glycerol release (FIG. 1B) and reduced intracellular triacylglycerol (FIG. 1C) and glycerol (FIG. 1D) in the same cells. […]

For test [3], the system named is 3T3-L1 adipocytes. The test can be described thus: cellular triacylglycerol in 3T3-L1 adipocytes. Type of test: cell-based.
Text: as §1, §2, §3

Test [4] has as its system 3T3-L1 adipocytes. As to the kind of experiment: cellular glycerol in 3T3-L1 adipocytes. Type of test: cell-based.
Text: as §1, §2, §3

The next test deals with T1, lipoprotein lipase (LPL) (Mus musculus, UniProt P11152).
T1 construct: endogenous in cells; host or cells: 3T3-L1 adipocytes
T1 sequence (P11152 28-474): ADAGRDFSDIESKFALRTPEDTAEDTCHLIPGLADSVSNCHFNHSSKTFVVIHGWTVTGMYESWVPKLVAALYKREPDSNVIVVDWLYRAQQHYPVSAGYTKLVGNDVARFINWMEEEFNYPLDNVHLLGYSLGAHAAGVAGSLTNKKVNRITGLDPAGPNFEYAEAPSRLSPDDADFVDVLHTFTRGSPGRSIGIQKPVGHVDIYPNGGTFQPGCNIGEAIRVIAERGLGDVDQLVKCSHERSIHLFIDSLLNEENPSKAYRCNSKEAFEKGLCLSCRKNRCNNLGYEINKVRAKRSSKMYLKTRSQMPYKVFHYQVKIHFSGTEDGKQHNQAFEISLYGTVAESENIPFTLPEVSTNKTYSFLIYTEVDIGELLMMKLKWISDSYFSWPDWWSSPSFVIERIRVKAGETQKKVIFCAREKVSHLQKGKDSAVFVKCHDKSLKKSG
The test can be described thus: heparin-releasable LPL activity in 3T3-L1 adipocytes. Type of test: cell-based.
Text: as §1, §2, §3

For test [5], the system named is lipopolysaccharide-stimulated macrophages. The test can be described thus: PGE2 released from LPS-stimulated macrophages. Type of test: cell-based. The note with it: macrophages incubated 24 hours, then 100 ng/ml LPS 8 hours; about 3000 pg/ml without CNA (FIG. 7). As to the method: As a further indication of the ability of CNA to inhibit COX enzymes, FIG. 7 depicts the inhibition of PGE2 released from stimulated macrophages in the presence of varying amounts of CNA. Confluent macrophages were incubated with CNA or linoleic acid (LA; control) at the concentrations shown for 24 hours in 0.5% fetal bovine serum then were stimulated with 100 ng/ml lipopolysaccharide (LPS) for 8 hours. The level of PGE2 in the medium was determined by ELISA assay.

The target of a further test is T2, ovine cyclooxygenase-2 (Ovis aries, UniProt P79208).
T2 sequence (P79208 17-603): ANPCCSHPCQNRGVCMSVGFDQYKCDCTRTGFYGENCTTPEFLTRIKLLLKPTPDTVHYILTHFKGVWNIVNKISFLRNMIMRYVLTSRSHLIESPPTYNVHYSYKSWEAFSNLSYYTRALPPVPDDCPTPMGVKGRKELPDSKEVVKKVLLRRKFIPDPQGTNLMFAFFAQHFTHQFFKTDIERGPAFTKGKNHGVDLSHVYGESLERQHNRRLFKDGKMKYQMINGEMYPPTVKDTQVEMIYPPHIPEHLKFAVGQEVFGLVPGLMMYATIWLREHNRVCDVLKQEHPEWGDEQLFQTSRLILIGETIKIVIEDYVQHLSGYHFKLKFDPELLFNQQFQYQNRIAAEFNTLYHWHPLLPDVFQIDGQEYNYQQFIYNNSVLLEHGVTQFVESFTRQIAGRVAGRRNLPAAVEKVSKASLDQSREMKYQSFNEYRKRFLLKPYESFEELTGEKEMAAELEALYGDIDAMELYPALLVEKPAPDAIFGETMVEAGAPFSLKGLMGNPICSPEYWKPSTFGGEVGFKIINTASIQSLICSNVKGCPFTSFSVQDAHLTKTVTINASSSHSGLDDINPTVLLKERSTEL
As to the kind of experiment: ovine COX-2 inhibition (total prostanoids by ELISA). The note with it: pure ovine COX-2, 5 min co-incubation, 37° C. (FIG. 6). The test is classed as biochemical. On the procedure: (§4) Determination of thromboxane B2 level by ELISA: After the whole blood platelet aggregation, the collagen-stimulated blood was centrifuged for plasma and stored at −80° C. The plasma thromboxane level was determined by ELISA according to the manufacturer's instructions. Inhibitory effects on ovine COX-1 and COX-2: COX-1 or COX-2, heme and reaction buffer were pre-incubated under 37° C. CNA or DMSO (control) was added to the system and co-incubated for 5 minutes. Arachidonic acid was added and the reaction was maintained at 37° C. for 2 minutes. The catalysis reaction was terminated by adding HCL. Total prostanoids were measured by ELISA according to manufacturer's instructions.

Test [6] concerns collagen-induced whole blood platelet aggregation. The test can be described thus: collagen-induced whole blood platelet aggregation. Type of test: cell-based, guinea pigs. The note with it: guinea pig heparinized whole blood, collagen 4 μg/ml, 2 min preincubation (FIG. 2). As to the method:
(§5) Female guinea pigs and diets were purchased from Harlan Teklad (Madison, Wis). Whole Blood Aggregometer, collagen and ADP were purchased from Chrono-log Corp. (Havertown, Pa.). All ELISA kits were purchased from Cayman Chemical (Ann Arbor, Mich.).
(§6) Whole blood platelet aggregation: Guinea Pigs were anesthetized with a combination of ketamine (35 mg/kg) and xylazine (10 mg/kg) by subcutaneous administration. Heparinized blood (20 unit/ml) was obtained by cardiac puncture. Within 5-10 minutes, the blood (1.0 ml) was preheated at 37° C. and then incubated with free fatty acid or DMSO (control) for 2 minutes. Collagen (4 μg/ml) or ADP (10 μM) was next added to the blood to start the platelet aggregation process. Platelet aggregation was measured using an Aggregometer.

A further test concerns thromboxane B2. As to the kind of experiment: thromboxane B2 level in collagen-stimulated blood by ELISA. Type of test: cell-based, guinea pigs. The note with it: collagen-stimulated guinea pig blood, plasma ELISA (FIG. 4). As to the method:
as §5, §4

Another test deals with T3, ovine cyclooxygenase-1 (Ovis aries, UniProt P05979).
T3 sequence (P05979 25-600): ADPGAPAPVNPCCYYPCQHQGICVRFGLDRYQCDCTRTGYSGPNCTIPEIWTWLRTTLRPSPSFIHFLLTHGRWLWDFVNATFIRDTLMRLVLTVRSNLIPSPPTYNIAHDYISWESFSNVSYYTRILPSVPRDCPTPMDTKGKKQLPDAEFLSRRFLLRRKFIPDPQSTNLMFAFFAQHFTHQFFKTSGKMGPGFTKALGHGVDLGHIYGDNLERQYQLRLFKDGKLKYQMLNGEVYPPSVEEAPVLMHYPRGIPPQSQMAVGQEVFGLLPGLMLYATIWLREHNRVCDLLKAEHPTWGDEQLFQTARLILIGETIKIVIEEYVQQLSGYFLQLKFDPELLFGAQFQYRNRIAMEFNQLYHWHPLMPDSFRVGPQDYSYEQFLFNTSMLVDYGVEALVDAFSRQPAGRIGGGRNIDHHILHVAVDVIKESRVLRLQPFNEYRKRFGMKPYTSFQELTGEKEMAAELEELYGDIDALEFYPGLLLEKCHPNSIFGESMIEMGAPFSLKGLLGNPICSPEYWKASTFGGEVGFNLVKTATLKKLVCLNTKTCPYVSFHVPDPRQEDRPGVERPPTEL
The test can be described thus: ovine COX-1 inhibition (total prostanoids by ELISA). The test is classed as biochemical. The note with it: pure ovine COX-1, 5 min co-incubation, 37° C. (FIG. 5). On the procedure: as §4

For test [7], the system named is ADP-induced whole blood platelet aggregation. The test can be described thus: ADP-induced whole blood platelet aggregation. Type of test: cell-based, guinea pigs. Particulars: guinea pig heparinized whole blood, ADP 10 μM, 2 min preincubation (FIG. 3). On the procedure: as §5, §6

Regarding “Conjugated linoleic acid [CLA, reference compound]”, the “Body weight gain per animal” value in test [1] stood at 1.3 g.

For the compound `CCCCC/C=C\C/C=C\CCCCCCCCC(=O)O` [NA, c10, c13 nonadecadienoic acid, reference compound], the glycerol release result in the test on 3T3-L1 adipocytes [2] (at 50 or 100 μM) is “ineffective”. For the same compound, the intracellular triacylglycerol entry in the test with 3T3-L1 adipocytes [3] (at 50 or 100 μM) is given as “ineffective”. Besides, the intracellular glycerol entry with 3T3-L1 adipocytes [4] (at 50 or 100 μM) is on record as “ineffective”. Further, on lipoprotein lipase (LPL) (3T3-L1 adipocytes, at 50 or 100 μM), the LPL activity entry was “ineffective”.

With conjugated nonadecadienoic acid [CNA], in the test on 3T3-L1 adipocytes [2] (2 days, albumin 100 μM (FIG. 1B)), the glycerol release entry is recorded as “enhanced”. For the same compound, the “level of PGE2 in the medium” value in test [5] is “less than 1000 pg/ml”. Moreover, the COX-2 activity result on ovine cyclooxygenase-2 is recorded as “inhibited”. In [6], the collagen-stimulated platelet aggregation result is “inhibited”. Moreover, the intracellular triacylglycerol result with 3T3-L1 adipocytes [3] (2 days, albumin 100 μM (FIG. 1C)) is given as “reduced”. Moreover, the “thromboxane B2 level” value in the test on thromboxane B2 is given as “reduced”. Besides, the intracellular glycerol result in the test on 3T3-L1 adipocytes [4] (2 days, albumin 100 μM (FIG. 1D)) is listed as “reduced”. Moreover, in test [1], the “Body weight gain per animal” value is reported as 0.2 g. Moreover, in test [1] (mice, in words), the “amount of whole body water, protein and ash” value is reported as “enhanced”; the “body fat mass gain” value is listed as “reduced”. The COX-1 activity result at ovine cyclooxygenase-1 is given as “inhibited”. The ADP-stimulated platelet aggregation result in test [7] is reported as “inhibited”. In addition, the LPL activity entry at lipoprotein lipase (LPL) (cultured 3T3-L1 adipocytes, fatty acid-albumin complexes 2 days, albumin 100 μM (FIG. 1A)) is on record as “inhibited”.

The record behind these values is patent US20030008845A1, “Conjugated nonadecadienoic acid compositions” (priority 2001, published 2003).
